Where a name gives a salt, the structure may show the parent alone. Read-outs that look alike come from different tables or passages of the source.
Assays:
[1] = test system: Trichomonas vaginalis G3 trophozoites; conditions: for T.vaginalis_Absorbance_Rep1 / T.vaginalis_Absorbance_Rep2: HTS, parasite screen at 1 µg/mL; for T.vaginalis_Absorbance_Rep1: replicate 1, raw absorbance; for T.vaginalis_Absorbance_Rep2: replicate 2, raw absorbance
[2] = test system: nontumorigenic neonatal foreskin fibroblast (NFF) cell line
[3] = test system: Trichomonas vaginalis G3 trophozoites; assay: microbe, parasite or virus in culture; conditions: 48 h
[4] = read-out: T.vaginalis_%inb_Rep1
[5] = read-out: T.vaginalis_%inb_Rep2
[6] = NFF fibroblast screen at 5 µg/mL, A = active, I = inactive

| SMILES | T.vaginalis_Absorbance_Rep1 [1] | T.vaginalis_Absorbance_Rep2 [1] | NFF_Activity ([2]; NFF_NS1 screen at 5 µg/mL) | inhibition of growth at 1 µg/mL [3, 4] | inhibition of growth at 1 µg/mL [3, 5] | NFF_Activity [2] | NFF_Activity [2, 6] | selectivity: anti-trichomonal vs anti-tumour (NS-1) and cytotoxic (NFF) activity ([1]; single concentration screens of the same library, NS-1/NFF active if >25% inhibition) |
| --- | --- | --- | --- | --- | --- | --- | --- | --- |
| COc1cc(C)c(C(=O)Oc2cc(C)c(C(=O)O)c(O)c2C)c(OC)c1C [Diffractaic acid] | 0.965 | 0.79 | I (otherwise these were reported as inactive (I)) | 13.8% | 12.3% |  |  |  |
| CC[C@@H]1C[C@H]2CC[C@H](O2)[C@H](C)C(=O)O[C@@H](C)C[C@@H]2CC[C@@H](O2)[C@@H](C)C(=O)O[C@H](CC)C[C@H]2CC[C@H](O2)[C@H](C)C(=O)O[C@@H](C)C[C@@H]2CC[C@@H](O2)[C@@H](C)C(=O)O1 [Dinactin] | 0.868 | 0.733 | I (otherwise these were reported as inactive (I)) | 8.56% | 8.17% |  |  |  |
| C=CC(C)(C)c1[nH]c2c(CC=C(C)C)cc(CC=C(C)C)cc2c1C[C@@H]1NC(=O)[C@H](C)NC1=O [Echinulin] | 1.001 | 0.85 | I (otherwise these were reported as inactive (I)) | 15.7% | 16.6% |  |  |  |
| CC[C@H](C)[C@H]1C(=O)O[C@H](C(C)C)C(=O)N(C)[C@@H](C(C)C)C(=O)O[C@H](C(C)C)C(=O)N(C)[C@@H](C(C)C)C(=O)O[C@H](C(C)C)C(=O)N1C [Enniatin B1] | 0.967 | 0.828 | I (otherwise these were reported as inactive (I)) | 13.9% | 15% |  |  |  |
| CC(C)[C@H]1C(=O)O[C@H](C(C)C)C(=O)N(C)[C@@H](C(C)C)C(=O)O[C@H](C(C)C)C(=O)N(C)[C@@H](C(C)C)C(=O)O[C@H](C(C)C)C(=O)N1C [Enniatin B] | 0.992 | 0.695 | I (otherwise these were reported as inactive (I)) | 15.2% | 5.42% |  |  |  |
| C/C(=C\c1csc(C)n1)[C@@H]1C[C@@H]2O[C@@H]2CCC[C@H](C)[C@H](O)[C@@H](C)C(=O)C(C)(C)[C@@H](O)CC(=O)O1 [Epothilone A] | 2.11 | 1.991 | I (otherwise these were reported as inactive (I)) | 71.4% | 87% |  |  |  |
| COc1cc(C)c(C(=O)Oc2cc(C)c(C(=O)O)c(O)c2)c(O)c1 [Evernic acid] | 0.922 | 0.775 | I (otherwise these were reported as inactive (I)) | 11.5% | 11.2% |  |  |  |
| CO[C@H]1C[C@@H]2CC[C@@H](C)[C@@](O)(O2)C(=O)C(=O)N2CCCC[C@H]2C(=O)O[C@H]([C@H](C)C[C@@H]2CC[C@@H](OCCO)[C@H](OC)C2)CC(=O)[C@H](C)/C=C(\C)[C@@H](O)[C@@H](OC)C(=O)[C@H](C)C[C@H](C)/C=C/C=C/C=C/1C [Everolimus] | 0.983 | 0.76 | I (otherwise these were reported as inactive (I)) | 14.8% | 10.1% |  |  |  |
| CCCCC[C@@H](O)[C@H]1C(=O)O[C@H](C)[C@@H](O)/C=C/C=C/C=C/C=C/C=C(\C)[C@@H](O)C[C@H](O)C[C@H](O)C[C@H](O)C[C@H](O)C[C@H](O)C[C@@H]1O [Filipin III] | 1.003 | 0.794 | I (otherwise these were reported as inactive (I)) | 15.8% | 12.6% |  |  |  |
| C[C@@](O)(/C=C/[C@H]1CC=CC(=O)O1)[C@@H](C[C@@H](O)\C=C/C=C\C=C\CO)OP(=O)(O)O [Fostriecin] | 0.964 | 0.811 | I (otherwise these were reported as inactive (I)) | 13.7% | 13.8% |  |  |  |
| Cc1cc(O)c(C=O)c2c1C(=O)Oc1c(COC(=O)/C=C/C(=O)O)c(O)c(C(=O)O)c(C)c1O2 [Fumarprotocetraric acid] | 0.953 | 0.839 | I (otherwise these were reported as inactive (I)) | 13.1% | 15.8% |  |  |  |
| C[C@H]1C(=O)N2c3ccccc3[C@@]3(O)C[C@@H]4C(=O)N[C@](C)(c5nc6ccccc6c(=O)n54)N1[C@@H]23 [Fumiquinazoline D] | 0.964 | 0.84 | I (otherwise these were reported as inactive (I)) | 13.7% | 15.9% |  |  |  |
| CCCCc1ccc(C(=O)O)nc1 [Fusaric acid] | 0.976 | 0.881 | I (otherwise these were reported as inactive (I)) | 13.9% | 15.8% |  |  |  |
| O=c1c(-c2ccc(O)cc2)coc2cc(O)cc(O)c12 [Genistein] | 1.004 | 0.828 | I (otherwise these were reported as inactive (I)) | 15.3% | 12.4% |  |  |  |
| C=Cc1cc(OC)c2c(c1)c(=O)oc1c2cc(OC)c2c(O)ccc([C@H]3O[C@H](C)[C@H](O)[C@H](O)[C@H]3O)c21 [Gilvocarcin V] | 0.79 | 0.706 | I (otherwise these were reported as inactive (I)) | 4.46% | 4.55% |  |  |  |
| CN[C@H](CC(C)C)C(=O)N[C@H]1C(=O)N[C@@H](CC(N)=O)C(=O)N[C@H]2C(=O)N[C@H]3C(=O)N[C@H](C(=O)N[C@H](C(=O)O)c4cc(O)cc(O)c4-c4cc3ccc4O)[C@H](O)c3ccc(c(Cl)c3)Oc3cc2cc(c3O[C@@H]2O[C@H](CO)[C@@H](O)[C@H](O)[C@H]2O[C@H]2C[C@](C)(N)[C@H](O)[C@H](C)O2)Oc2ccc(cc2Cl)[C@H]1O [Vancomycin hydrochloride] |  |  |  | 1.36% | 5.42% | I (key: active (A) compounds having >25% inhibitory activity; otherwise these were reported as inactive (I)) |  |  |
| COc1ccc2c3c4n(c2c1)[C@H](C=C(C)C)OOC(C)(C)C[C@@H]4N1C(=O)[C@@H]2CCCN2C(=O)[C@]1(O)[C@H]3O [Verruculogen] |  |  |  | 10.3% | 10.6% |  | I (otherwise these were reported as inactive (I)) |  |
| O=c1[nH]c2ccccc2c(-c2ccccc2)c1O [Viridicatin] |  |  |  | 10.7% | 15.1% |  | I (otherwise these were reported as inactive (I)) |  |
| CC=C1CN(C)C2Cc3c([nH]c4ccccc34)C(c3cc4[nH]c5c(c4cc3OC)CCN3CC4CC(CC)C3C5(C(=O)OC)C4)CC1C2C(=O)OC (stereo not drawn) [Voacamine] |  |  |  | 9.44% | 11.1% |  | I (otherwise these were reported as inactive (I)) |  |
| COC(=O)C1=C2Nc3ccccc3[C@@]23CCN2C[C@]4(C[C@@H]5C[C@]67CCC[C@H]6CCN6CC[C@@]8(c9cccc(OC)c9N(C4)[C@@]58O)[C@@H]67)[C@@H]4OCC[C@]4(C1)[C@H]23 [Vobtusine] |  |  |  | 9.54% | 11.4% |  | I (otherwise these were reported as inactive (I)) |  |
| COC(=O)/C(=C1/OC(=O)C(c2ccccc2)=C1O)c1ccccc1 [Vulpinic acid] |  |  |  | 8.02% | 11.4% |  | I (otherwise these were reported as inactive (I)) |  |
| Cc1nnc2n1-c1sc(CCC(=O)N3CCOCC3)cc1C(c1ccccc1Cl)=NC2 [WEB 2086] |  |  |  | 9.91% | 13.4% |  | I (otherwise these were reported as inactive (I)) |  |
| COC[C@H]1OC(=O)c2coc3c2[C@@]1(C)C1=C(C3=O)[C@@H]2CCC(=O)[C@@]2(C)C[C@H]1OC(C)=O [Wortmannin] |  |  |  | 7.97% | 13.5% |  | I (otherwise these were reported as inactive (I)) |  |
| CC1(C)C=Cc2cc3ccc(=O)oc3cc2O1 [Xanthyletin] |  |  |  | 12% | 15.5% |  | I (otherwise these were reported as inactive (I)) |  |
| C=C(CC[C@]12O[C@H](C(=O)O)[C@@](O)(C(=O)O)[C@](C(=O)O)(O1)[C@H](OC(=O)/C=C/[C@@H](C)C[C@@H](C)CC)[C@H]2O)[C@@H](OC(C)=O)[C@H](C)Cc1ccccc1 [Zaragozic acid A] |  |  |  | 9.75% | 7.01% |  | I (otherwise these were reported as inactive (I)) |  |
| C[C@H]1CCCC(=O)CCCCCc2cc(O)cc(O)c2C(=O)O1 [Zearalanone] |  |  |  | 10.1% | 14.6% |  | I (otherwise these were reported as inactive (I)) |  |
| C[C@H]1CCCC(=O)CCC/C=C/c2cc(O)cc(O)c2C(=O)O1 [Zearalenone] |  |  |  | 7.39% | 12% |  | I (otherwise these were reported as inactive (I)) |  |
| C/C(=C\c1csc(C)n1)[C@@H]1C[C@@H]2O[C@]2(C)CCC[C@H](C)[C@H](O)[C@@H](C)C(=O)C(C)(C)[C@@H](O)CC(=O)O1 [epothilone B, reference compound] | 2.179 | 1.684 | I (otherwise these were reported as inactive (I)) | 74.9% | 67.3% |  |  | selective for T. vaginalis |
